In US8362008B2 (The University Of Edinburgh, priority 2007, dated 2013):

How the values were obtained:
human 11β-HSD2 = target: T1, human 11β-HSD2 (Homo sapiens, UniProt P80365); experiment: Cellular in vitro 11β-HSD2 enzyme inhibition assay (CHO cells, TLC/phosphoimager); assay type: cell-based; details: CHO cells stably transfected with human 11β-HSD2; Table 1
T1 construct: CHO cells stably transfected with the full-length gene coding for human 11β-HSD2 were used; expressed in transfected cells; host or cells: CHO
T1 sequence (P80365 1-405): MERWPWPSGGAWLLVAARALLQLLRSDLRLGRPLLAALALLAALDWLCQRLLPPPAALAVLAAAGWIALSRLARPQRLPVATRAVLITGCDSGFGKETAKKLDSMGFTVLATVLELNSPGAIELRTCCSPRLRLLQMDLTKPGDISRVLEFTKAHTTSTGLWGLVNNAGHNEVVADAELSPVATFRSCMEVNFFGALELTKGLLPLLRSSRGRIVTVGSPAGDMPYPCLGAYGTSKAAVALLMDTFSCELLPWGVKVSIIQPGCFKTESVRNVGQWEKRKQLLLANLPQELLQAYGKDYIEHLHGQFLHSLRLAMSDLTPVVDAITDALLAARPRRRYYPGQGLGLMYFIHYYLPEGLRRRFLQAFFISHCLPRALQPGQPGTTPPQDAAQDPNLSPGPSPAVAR
Experimental: Cellular In Vitro 11β-HSD2 Enzyme Inhibition Assay
For measurement of inhibition of 11β-HSD2, CHO cells stably transfected with the full-length gene coding for human 11β-HSD2 were used. Assays were carried out in 96-well microplates containing 1×10^5 cells/well. Controls and compounds were plated as above, so that the final DMSO concentration in each well was 1%. To initiate the assay, 90 μL of a solution of HAMS F-12 medium containing 1% glutamine, 1% penicillin and streptomycin, and 22 nM tritiated cortisol was added to each well of the assay plate. The plate was then incubated in 5% CO2, 95% O2 at 37° C. for 16 hours.
The assay solutions were transferred to glass tubes and 20 μL ethyl acetate added to each tube. Each tube was vortexed thoroughly and the upper layer containing the tritiated steroid transferred to a fresh glass tube. The solvent was evaporated by placing the tubes in a heating block at 65° C. under a stream of Nitrogen gas. 20 μL ethanol was added to each of the dried samples and vortexed briefly. Each sample was applied to a silica TLC plate and the plate dried. The plate was placed vertically in a glass tank containing 92% chloroform:8% ethanol and the solvent allowed to rise up the plate. The plate was dried, placed in an imaging cassette, and overlayed with a tritium imaging plate for 1-2 days. The amount of enzyme inhibition in each sample was determined by measuring the intensity of the substrate and product spots using a phosphoimager.
IC50 values for inhibitors were determined as described for 11β-HSD1.

human 11β-HSD1 enzyme = target: T2, human 11β-HSD1 enzyme (Homo sapiens, UniProt P28845); experiment: Cellular in vitro 11β-HSD1 enzyme inhibition assay (SPA, HEK293/11β-HSD1 cells); assay type: cell-based
T2 construct: stably transfected with a construct containing the full-length gene coding for the human 11β-HSD1 enzyme; expressed in transfected cells; host or cells: HEK293 (HEK293/11β-HSD1 cells)
T2 sequence (P28845 whole entry): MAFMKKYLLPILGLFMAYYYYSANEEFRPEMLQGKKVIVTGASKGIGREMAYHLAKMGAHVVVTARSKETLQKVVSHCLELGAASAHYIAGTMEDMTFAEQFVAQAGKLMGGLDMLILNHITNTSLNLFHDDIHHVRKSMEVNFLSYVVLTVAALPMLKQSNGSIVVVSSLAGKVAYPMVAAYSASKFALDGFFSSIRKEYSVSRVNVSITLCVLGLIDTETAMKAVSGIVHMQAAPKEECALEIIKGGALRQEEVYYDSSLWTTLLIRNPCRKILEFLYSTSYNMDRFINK
Procedure, shortened: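 Stably transfected HEK293 cells expressing full-length human 11β-HSD1 were plated 24 h, then incubated with compound 2 h at 37 °C; cortisol formed was quantified by SPA with anti-cortisol antibody. Percent inhibition used no-cell (minimum) and no-compound (maximum) wells; IC50 from four-parameter logistic fit.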

[1] = HEK293, less than or equal to 1000 nM (1 μM)
[2] = HEK293 cells stably transfected with human 11β-HSD1, Table 1

SMILES | IC50 (human 11β-HSD2) [µM] | IC50 (human 11β-HSD1 enzyme; [1]) [nM] | IC50 (human 11β-HSD1 enzyme; [2]) [nM]
CCc1cc(C(=O)N2CC3(C)CC2CC(C)(C)C3)cs1 (centres unmarked) [AA-014, (5-Ethyl-thiophen-3-yl)-(1,3,3-trimethyl-6-aza-bicyclo[3.2.1]oct-6-yl)-methanone] | > 10 | ≤ 1000 | 4
O=C(c1csc(C2CCCCC2)c1)N1CCCCCC1 [DD-002, Azepan-1-yl-(5-cyclohexyl-thiophen-3-yl)-methanone] | > 10 | ≤ 1000 | 882
CS(=O)(=O)NCCNC(=O)N1CCC(c2cc(C(=O)N3CCCC4CCCCC43)cs2)CC1 (stereo not drawn) [CC-168, cis-4-[4-(Octahydro-quinoline-1-carbonyl)-thiophen-2-yl]-piperidine-1-carboxylic acid(2-methanesulfonylamino-ethyl)-amide] | > 10 | ≤ 1000 | 77
CC1(C)CCCN(C(=O)c2csc(C3CCOCC3)c2)C1 [CC-003] | > 10 | ≤ 1000 | 150
COCc1cc(C(=O)N2CCCC3(CCCCC3)C2)cs1 [BB-007] | > 10 | ≤ 1000 | 68

Other lines, results leading:

IC50 (human 11β-HSD2) [µM] | IC50 (human 11β-HSD1 enzyme; [1]) [nM] | IC50 (human 11β-HSD1 enzyme; [2]) [nM] | SMILES
> 10 | – | 127 | O=C(c1csc(C2CCNCC2)c1)N1CCC[C@@H]2CCCC[C@@H]21 (single isomer, unassigned) [CC-033, cis-(octahydro-quinolin-1-yl)-(5-piperidin-4-yl-thiophen-3-yl)-methanone]
> 10 | ≤ 1000 | 61 | COC(=O)N1CCC(c2cc(C(=O)N3CCCCC3c3ccccc3)cs2)CC1 (centres unmarked) [CC-119]
> 10 | ≤ 1000 | 20 | CC(=O)N1CCC(c2cc(C(=O)N3CCC[C@@H]4CCCC[C@@H]43)cs2)C1 (relative stereo) [CC-111, cis-1-{3-[4-(Octahydro-quinoline-1-carbonyl)-thiophen-2-yl]-pyrrolidin-1-yl}ethanone]
> 10 | ≤ 1000 | 23 | CC1(C)CCCN(C(=O)c2csc(C3CCN(C(=O)NCCO)CC3)c2)CC1 [CC-175]
> 10 | ≤ 1000 | 281 | CCc1cc(C(=O)N2CCCCC2)c(Cl)s1 [AA-001, (2-Chloro-5-ethyl-thiophen-3-yl)-piperidin-1-yl-methanone]
> 10 | ≤ 1000 | 96 | CNC(=O)N1CCC(c2cc(C(=O)N3CCCC4CCCCC43)cs2)CC1 (centres unmarked) [CC-106]
